Source: the NIST ThermoML archive (doi:10.1021/acs.jced.7b00106)

Settings: Hot wire method

FC(F)(F)/C=C/Cl [(E)-1-chloro-3,3,3-trifluoroprop-1-ene]
Settings	thermal conductivity [W/m/K]
343.36 K, 65455 kPa, Liquid	0.09919
343.39 K, 244 kPa, Gas	0.01403
343.41 K, 34281 kPa, Liquid	0.08798
343.43 K, 53923 kPa, Liquid	0.09546
343.44 K, 254 kPa, Gas	0.0143
343.54 K, 43743 kPa, Liquid	0.09133
343.62 K, 34264 kPa, Liquid	0.08757
343.63 K, 177 kPa, Gas	0.01444
343.68 K, 26051 kPa, Liquid	0.08479
343.71 K, 368 kPa, Gas	0.01422
343.72 K, 113 kPa, Gas	0.01433
343.77 K, 19020 kPa, Liquid	0.08131
343.82 K, 116 kPa, Gas	0.01436
343.85 K, 65463 kPa, Liquid	0.09884
343.89 K, 252 kPa, Gas	0.01433
343.9 K, 26047 kPa, Liquid	0.08436
343.93 K, 12786 kPa, Liquid	0.07777
343.93 K, 53925 kPa, Liquid	0.09489
343.97 K, 19023 kPa, Liquid	0.08066
344.06 K, 43740 kPa, Liquid	0.09102
344.06 K, 65472 kPa, Liquid	0.09859
344.08 K, 176 kPa, Gas	0.01441
344.15 K, 365 kPa, Gas	0.0142
344.15 K, 53918 kPa, Liquid	0.09481
344.17 K, 12778 kPa, Liquid	0.07722
344.2 K, 113 kPa, Gas	0.01446
344.28 K, 117 kPa, Gas	0.01435
344.3 K, 43734 kPa, Liquid	0.09086
344.35 K, 250 kPa, Gas	0.01435
344.48 K, 465 kPa, Gas	0.01396
344.56 K, 175 kPa, Gas	0.01444
344.7 K, 114 kPa, Gas	0.01426
344.79 K, 119 kPa, Gas	0.01436
344.84 K, 248 kPa, Gas	0.01433
344.84 K, 463 kPa, Gas	0.01404
344.95 K, 465 kPa, Gas	0.01434
345.08 K, 174 kPa, Gas	0.01445
345.19 K, 360 kPa, Gas	0.01419
345.23 K, 114 kPa, Gas	0.01452
345.31 K, 120 kPa, Gas	0.01441
345.34 K, 463 kPa, Gas	0.01431
345.37 K, 246 kPa, Gas	0.01436
345.44 K, 465 kPa, Gas	0.0143
345.7 K, 358 kPa, Gas	0.01431
345.9 K, 245 kPa, Gas	0.01451
361.58 K, 586 kPa, Fluid (supercritical or subcritical phases)	0.01605
361.67 K, 483 kPa, Fluid (supercritical or subcritical phases)	0.01602
361.68 K, 45282 kPa, Liquid	0.08799
361.69 K, 33938 kPa, Liquid	0.0832
361.69 K, 33954 kPa, Liquid	0.08326
361.7 K, 45281 kPa, Liquid	0.08796
361.73 K, 23489 kPa, Liquid	0.07844
361.74 K, 23503 kPa, Liquid	0.07846
361.77 K, 371 kPa, Fluid (supercritical or subcritical phases)	0.01613
361.79 K, 26408 kPa, Liquid	0.07982
361.8 K, 26407 kPa, Liquid	0.07977
361.83 K, 39898 kPa, Liquid	0.0857
361.83 K, 39907 kPa, Liquid	0.0857
361.88 K, 33923 kPa, Liquid	0.08317
361.89 K, 33938 kPa, Liquid	0.0832
361.92 K, 588 kPa, Fluid (supercritical or subcritical phases)	0.01611
361.93 K, 45278 kPa, Liquid	0.08791
361.94 K, 45270 kPa, Liquid	0.08806
361.98 K, 23477 kPa, Liquid	0.07836
361.98 K, 23492 kPa, Liquid	0.07838
362.01 K, 484 kPa, Fluid (supercritical or subcritical phases)	0.01607
362.05 K, 26376 kPa, Liquid	0.07972
362.05 K, 26398 kPa, Liquid	0.07971
362.05 K, 39862 kPa, Liquid	0.08563
362.08 K, 39906 kPa, Liquid	0.08546
362.14 K, 33914 kPa, Liquid	0.08314
362.14 K, 33942 kPa, Liquid	0.08313
362.16 K, 19344 kPa, Liquid	0.07625
362.18 K, 23467 kPa, Liquid	0.07857
362.19 K, 8420 kPa, Liquid	0.06998
362.2 K, 3010 kPa, Liquid	0.06622
362.2 K, 8440 kPa, Liquid	0.07
362.2 K, 45249 kPa, Liquid	0.0878
362.2 K, 45283 kPa, Liquid	0.08787
362.21 K, 3023 kPa, Liquid	0.06627
362.21 K, 23488 kPa, Liquid	0.07836
362.23 K, 790 kPa, Liquid	0.06431
362.23 K, 805 kPa, Liquid	0.06452
362.24 K, 5520 kPa, Liquid	0.06804
362.24 K, 5538 kPa, Liquid	0.06811
362.26 K, 19400 kPa, Liquid	0.07636
362.27 K, 587 kPa, Fluid (supercritical or subcritical phases)	0.01619
362.3 K, 11679 kPa, Liquid	0.07201
362.3 K, 11690 kPa, Liquid	0.07201
362.31 K, 39856 kPa, Liquid	0.08563
362.31 K, 39891 kPa, Liquid	0.08561
362.32 K, 26374 kPa, Liquid	0.07971
362.32 K, 26405 kPa, Liquid	0.07971
362.37 K, 484 kPa, Fluid (supercritical or subcritical phases)	0.0162
362.41 K, 33911 kPa, Liquid	0.0832
362.42 K, 8419 kPa, Liquid	0.06999
362.42 K, 33938 kPa, Liquid	0.08309
362.44 K, 8433 kPa, Liquid	0.06997
362.46 K, 3010 kPa, Liquid	0.0662
362.47 K, 3011 kPa, Liquid	0.0662
362.47 K, 15419 kPa, Liquid	0.0741
362.47 K, 23460 kPa, Liquid	0.07827
362.48 K, 5516 kPa, Liquid	0.06801
362.48 K, 15443 kPa, Liquid	0.07414
362.48 K, 23476 kPa, Liquid	0.07831
362.48 K, 45268 kPa, Liquid	0.08777
362.48 K, 45271 kPa, Liquid	0.08777
362.49 K, 790 kPa, Liquid	0.06443
362.49 K, 5526 kPa, Liquid	0.06804
362.5 K, 790 kPa, Liquid	0.06446
362.51 K, 370 kPa, Fluid (supercritical or subcritical phases)	0.01626
362.54 K, 11661 kPa, Liquid	0.0719
362.55 K, 11680 kPa, Liquid	0.07196
362.57 K, 39863 kPa, Liquid	0.08553
362.58 K, 39864 kPa, Liquid	0.08552
362.6 K, 26399 kPa, Liquid	0.07968
362.6 K, 26401 kPa, Liquid	0.07967
362.61 K, 19433 kPa, Liquid	0.07636
362.65 K, 15399 kPa, Liquid	0.07408
362.66 K, 587 kPa, Fluid (supercritical or subcritical phases)	0.0163
362.66 K, 15425 kPa, Liquid	0.07408
362.67 K, 8422 kPa, Liquid	0.06992
362.68 K, 8413 kPa, Liquid	0.06988
362.69 K, 33907 kPa, Liquid	0.08302
362.69 K, 33929 kPa, Liquid	0.08306
362.7 K, 19433 kPa, Liquid	0.07633
362.74 K, 5502 kPa, Liquid	0.06792
362.75 K, 3008 kPa, Liquid	0.06615
362.75 K, 3026 kPa, Liquid	0.06618
362.75 K, 5530 kPa, Liquid	0.06798
362.75 K, 23458 kPa, Liquid	0.07811
362.75 K, 23492 kPa, Liquid	0.07827
362.75 K, 45227 kPa, Liquid	0.08785
362.76 K, 484 kPa, Fluid (supercritical or subcritical phases)	0.01624
362.76 K, 45255 kPa, Liquid	0.08771
362.77 K, 783 kPa, Liquid	0.06438
362.77 K, 802 kPa, Liquid	0.06442
362.8 K, 11664 kPa, Liquid	0.07188
362.81 K, 11670 kPa, Liquid	0.07191
362.83 K, 15386 kPa, Liquid	0.07403
362.86 K, 39872 kPa, Liquid	0.08551
362.87 K, 15400 kPa, Liquid	0.07403
362.87 K, 39835 kPa, Liquid	0.08548
362.89 K, 367 kPa, Fluid (supercritical or subcritical phases)	0.01631
362.89 K, 26375 kPa, Liquid	0.07958
